Measurements published in patent publication US6914045B2, “Glycopeptide antibiotics” (Wyeth Holdings Corporation, priority 2001, dated 2005).
≈ marks a conversion by molar mass, not a printed value.

How the values were obtained:
Test in all cases: in vitro antibacterial evaluation, MIC by broth dilution
Assay type in all cases: cell-based
Enterococcus sp. = details: broth dilution, 18 hours at 35° C.
How it was run: (§1)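 Broth dilution per NCCLS standard M7-A2 in Muller-Hinton II […], with an inoculum of 5×10^5 CFU/mL and antibiotic spanning 64-0.06 μg/mL. The MIC is the lowest concentration that inhibits growth of the organism.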

Escherichia coli = details: 18 hours at 35° C., strain ATCC 25922
How it was run: as §1

Staphylococcus sp. = details: broth dilution, 18 hours at 35° C.
How it was run: as §1

Streptococcus sp. = details: broth dilution, 18 hours at 35° C.
How it was run: as §1

CC(C)CC1OCC2OC(OC3C(CO)OC(Oc4ccc(CC5NC(=O)C(C(C)c6ccccc6)NC(=O)CNC(=O)C(CO)NC(=O)C(C(O)C6CNC(=N)N6C6OC(CO)C(O)C(O)C6O)NC(=O)C(C(O)C6CNC(=N)N6)NC5=O)cc4)C(O)C3O)C(O)C(O)C2O1 (stereo not drawn) [Example 107, Cyclo[glycyl-β-methylphenylalanyl-O-[4-O-[4,6-O-(3-methylbutylidene)hexopyranosyl]-hexopyranosyl]tyrosyl-3-(2-iminoimidazolidin-4-yl)seryl-3-(3-hexopyranosyl-2-iminoimidazolidin-4-yl)serylseryl]]
MIC Enterococcus avium (GC 4558) (Enterococcus sp.; Enterococcus avium (GC 4558)): 8 µg/mL (≈ 5.87 µM) | MIC Enterococcus faecalis (ATCC 29212) (Enterococcus sp.; Enterococcus faecalis (ATCC 29212)): 4 µg/mL (≈ 2.93 µM) | MIC Enterococcus faecalis (GC 2242) (Enterococcus sp.; Enterococcus faecalis (GC 2242)): 4 µg/mL (≈ 2.93 µM) | MIC Enterococcus faecalis (GC 4552) (Enterococcus sp.; Enterococcus faecalis (GC 4552)): 4 µg/mL (≈ 2.93 µM) | MIC Enterococcus faecalis (GC 4553) (Enterococcus sp.; Enterococcus faecalis (GC 4553)): 8 µg/mL (≈ 5.87 µM) | MIC Enterococcus faecalis (GC 4554) (Enterococcus sp.; Enterococcus faecalis (GC 4554)): 4 µg/mL (≈ 2.93 µM) | MIC Enterococcus faecium (GC 2243) (Enterococcus sp.; Enterococcus faecium (GC 2243)): 8 µg/mL (≈ 5.87 µM) | MIC Enterococcus faecium (GC 4556) (Enterococcus sp.; Enterococcus faecium (GC 4556)): 4 µg/mL (≈ 2.93 µM) | MIC Enterococcus faecium (GC 4557) (Enterococcus sp.; Enterococcus faecium (GC 4557)): 2 µg/mL (≈ 1.47 µM) | MIC Enterococcus faecalis (ATCC 29212) (Enterococcus sp.; strain ATCC 29212): 4 µg/mL (≈ 2.93 µM) | MIC Enterococcus faecalis (GC 2242) (Enterococcus sp.; strain GC 2242): 4 µg/mL (≈ 2.93 µM) | MIC Enterococcus faecium (GC 2243) (Enterococcus sp.; strain GC 2243): 8 µg/mL (≈ 5.87 µM) | MIC Enterococcus faecalis (GC 4552) (Enterococcus sp.; strain GC 4552): 4 µg/mL (≈ 2.93 µM) | MIC Enterococcus faecalis (GC 4553) (Enterococcus sp.; strain GC 4553): 8 µg/mL (≈ 5.87 µM) | MIC Enterococcus faecalis (GC 4554) (Enterococcus sp.; strain GC 4554): 4 µg/mL (≈ 2.93 µM) | MIC Enterococcus faecium (GC 4556) (Enterococcus sp.; strain GC 4556): 4 µg/mL (≈ 2.93 µM) | MIC Enterococcus faecium (GC 4557) (Enterococcus sp.; strain GC 4557): 2 µg/mL (≈ 1.47 µM) | MIC Enterococcus avium (GC 4558) (Enterococcus sp.; strain GC 4558): 8 µg/mL (≈ 5.87 µM) | MIC Escherichia coli (ATCC 25922) (Escherichia coli): 64 µg/mL (≈ 46.9 µM) | MIC Coagulase Negative Staphylococcus (GC 4547) (Staphylococcus sp.): 1 µg/mL (≈ 0.733 µM) | MIC Coagulase Negative Staphylococcus (GC 4548) (Staphylococcus sp.): 1 µg/mL (≈ 0.733 µM) | MIC Coagulase Negative Staphylococcus (GC 4549) (Staphylococcus sp.): 1 µg/mL (≈ 0.733 µM) | MIC Coagulase Negative Staphylococcus (GC 4551) (Staphylococcus sp.): 1 µg/mL (≈ 0.733 µM) | MIC Coagulase Negative Staphylococcus (ID-3941) (Staphylococcus sp.): 1 µg/mL (≈ 0.733 µM) | MIC Staphylococcus aureus (ATCC 29213) (Staphylococcus sp.): 1 µg/mL (≈ 0.733 µM) | MIC Staphylococcus aureus (GC 1131) (Staphylococcus sp.): 2 µg/mL (≈ 1.47 µM) | MIC Staphylococcus aureus (GC 4541) (Staphylococcus sp.): 2 µg/mL (≈ 1.47 µM) | MIC Staphylococcus aureus (GC 4542) (Staphylococcus sp.): 1 µg/mL (≈ 0.733 µM) | MIC Staphylococcus aureus (GC 4544) (Staphylococcus sp.): 2 µg/mL (≈ 1.47 µM) | MIC Staphylococcus aureus (GC 4545) (Staphylococcus sp.): 1 µg/mL (≈ 0.733 µM) | MIC Staphylococcus aureus-SMITH (GC 4543) (Staphylococcus sp.): 1 µg/mL (≈ 0.733 µM) | MIC Staphylococcus haemolyticus (GC 4546) (Staphylococcus sp.): 1 µg/mL (≈ 0.733 µM) | MIC Staphylococcus aureus (GC 1131) (Staphylococcus sp.; inoculum 5×10^5 CFU/mL, strain GC 1131): 2 µg/mL (≈ 1.47 µM) | MIC Staphylococcus aureus (ATCC 29213) (Staphylococcus sp.; strain ATCC 29213): 1 µg/mL (≈ 0.733 µM) | MIC Staphylococcus aureus (GC 4541) (Staphylococcus sp.; strain GC 4541): 2 µg/mL (≈ 1.47 µM) | MIC Staphylococcus aureus (GC 4542) (Staphylococcus sp.; strain GC 4542): 1 µg/mL (≈ 0.733 µM) | MIC Staphylococcus aureus (GC 4544) (Staphylococcus sp.; strain GC 4544): 2 µg/mL (≈ 1.47 µM) | MIC Staphylococcus aureus (GC 4545) (Staphylococcus sp.; strain GC 4545): 1 µg/mL (≈ 0.733 µM) | MIC Staphylococcus haemolyticus (GC 4546) (Staphylococcus sp.; strain GC 4546): 1 µg/mL (≈ 0.733 µM) | MIC Coagulase Negative Staphylococcus (GC 4547) (Staphylococcus sp.; strain GC 4547): 1 µg/mL (≈ 0.733 µM) | MIC Coagulase Negative Staphylococcus (GC 4548) (Staphylococcus sp.; strain GC 4548): 1 µg/mL (≈ 0.733 µM) | MIC Coagulase Negative Staphylococcus (GC 4549) (Staphylococcus sp.; strain GC 4549): 1 µg/mL (≈ 0.733 µM) | MIC Coagulase Negative Staphylococcus (GC 4551) (Staphylococcus sp.; strain GC 4551): 1 µg/mL (≈ 0.733 µM) | MIC Coagulase Negative Staphylococcus (ID-3941) (Staphylococcus sp.; strain ID-3941): 1 µg/mL (≈ 0.733 µM) | MIC Staphylococcus aureus-SMITH (GC 4543) (Staphylococcus sp.; strain SMITH GC 4543): 1 µg/mL (≈ 0.733 µM) | MIC Streptococcus agalactiae (GC 4564) (Streptococcus sp.; Streptococcus agalactiae (GC 4564)): 0.25 µg/mL (≈ 0.183 µM) | MIC Streptococcus pneumoniae (GC 4565) (Streptococcus sp.; Streptococcus pneumoniae (GC 4565)): <0.12 µg/mL | MIC Streptococcus pyogenes (ID-3187) (Streptococcus sp.; Streptococcus pyogenes (ID-3187)): 0.25 µg/mL (≈ 0.183 µM) | MIC Streptococcus agalactiae (GC 4564) (Streptococcus sp.; strain GC 4564): 0.25 µg/mL (≈ 0.183 µM) | MIC Streptococcus pneumoniae (GC 4565) (Streptococcus sp.; strain GC 4565): <0.12 µg/mL | MIC Streptococcus pyogenes (ID-3187) (Streptococcus sp.; strain ID-3187): 0.25 µg/mL (≈ 0.183 µM)
